Legend:
Assay type in all cases: in vivo, Mäuse
[1] = test system: Tumorart P 388 (Leucämie); assay: Leukaemia P 388 in mice, NCI protocol 1 200, survival; conditions: for Heilung: % of animals
Experimental: (§1) Die nachfolgenden Beispiele wurden durchgeführt nach Testvorschriften des National Cancer Institute Bethesda, Maryland 200014, veröffentlicht in "Cancer Chemotherapy Reports" Part. 3, Sept. '72, Vol. 3, Nr. 2. Als Wirksubstanz wurde verwendet α-Triglycidylisocyanurat (F 106° C) sowie β-Triglycidylisocyanurat (F 158 °C), beide mit 16,1 % Epoxidsauerstoffgehalt (Herstellung siehe US-PS 3,337,509).
(§2) Alle wäßrigen 1 %igen Injektionslösungen wurden unmittelbar vor der Applikation frisch hergestellt.
Bei Mäusen wurde gemäß Protokoll 1 200 (Seite 9 l.c.) die Tumorart P 388 (Leucämie) i.p. mit 10^6 Zellen/Maus ge- setzt. Die unbehandelten Tiere hatten eine mittlere Überlebensdauer von 10,5 Tagen.
Bei Mäusen wurde gemäß Protokoll 1 200 (Seite 9 1.c.) die Tumorart P 388 Leucämie i.p. mit 10^6 Zellen/Maus gesetzt. Die unbehandelten Tiere hatten eine mittlere überlebensdauer von 10 Tagen.

[2] = test system: gegenüber Cyclophosphamid (NSC 26271) resistente Leukämieform von P 388; assay: Cyclophosphamide-resistant P 388 leukaemia in mice, survival; conditions: 10 mice
Experimental: as §1, §2
Eine gegenüber Cyclophosphamid (NSC 26271) resistente Leukämieform von P 388 wurde mit α-T3I und Cyclophosphamid behandelt. Jede Gruppe bestand aus 10 Mäusen.

Leukämie L 1210 = assay: Leukaemia L 1210 in mice, NCI protocol 1.100, survival; conditions: for Überlebende / ganze Gruppe, leukäm. M. / Überlebende / ganze Gruppe, Kontrollgruppe: after 30 days; for Überlebende / ganze Gruppe, Kontrollgruppe: control group
Experimental: as §1, §2
Bei Mäusen wurde gemäß Protokoll 1.100 (Seite 7 1.c.) Leukämie L 1210 durch i.p. Verabreichung von 0,1 ml verdünnter Erregerlösung entsprechend 10^5 Zellen erzeugt. Bei der Kontrollgruppe betrug die mittlere Überlebensdauer 8 Tage (m.s.t.).
B) Der Einfluß der Behandlungsplanung auf die therapeutische Wirksamkeit von α-TGI bei Tumor L 1210 nach 30 Tagen ist der nachfolgenden Tabelle I zu entnehmen.

Melanom B16 = assay: Melanoma B 16 in mice, NCI instruction 1.300, survival; conditions: days 1 to 9
Experimental: as §1, §2
bei Mäusen wurde gemäß Anweisung 1.300 das 1/10 Homogenzt teranom B 16 jeweils 0,5 ml pro Maus i.p, verabfolgt gergl. S. 11 1,c.).
Die Kontrollgruppe hatte eine mittlere Überlebenszeit von 15,3 Tagen (m.s.t.).
Behandelte Gruppen erhielten vom 1. bis 9. Tag verschiedene Mengen α-TGI i.p. In der nachfolgenden Tabelle II ist die mittlere überlebensdauer und T/C in Ahhängigkeit der p.die gegebenen Menge Wirkstoff wiedergegeben.

Lungencarcinom (Lewis) = assay: Lewis lung carcinoma in mice, NCI protocol 1.400, inhibition of metastases; conditions: days 1 to 11, after 23 days
Experimental: as §1, §2
Gemäß Protokoll 1.400 (Seite 13 1.c.) wurden bei Mäusen Zellen, s.c. eines 1 mm^3 Stücks Lungencarcinom (Lewis) implantiert. Dann erfolgte vom 1. bis 11. Tag i.p. Verabfolgung von 40 mg/kg p.die an α-TGI bzw. 90 mg/kg p.die an β -TGI.

Ependymoblastom = assay: Intracerebrally implanted ependymoblastoma in mice, survival; conditions: 40 mg/kg p.die, 9 days
Experimental: as §1, §2
Bei einer Testgruppe von Mäusen wurde durch intracerebra1 mm^3 eines Gewebes von Ependymoblastom implantiert. Die mittlere Überlebensdauer bei der Kontrollgruppe be- trug 19,3 Tage.

Sarcom 180 = assay: Sarcoma 180 i.p. in mice, survival; conditions: 30 mg/kg i.p., days 1 to 9
Experimental: as §1, §2
Durch i.p-Verabfolgung von 10^6 Zellen pro Maus wurde das Sarcom 180 gesetzt. Die unbehandelte Kontrollgrüppe hatte eine mittlere überlebenszeit von 20, 2 Tagen.

Coloncarcinom 38 = assay: Colon carcinoma 38 s.c. in mice, tumour weight; conditions: after 20 days (control 512 mg/Maus)
Experimental: as §1, §2
A)Gruppen von 10 Mäusen wurde etwa 1 mm^3 Coloncarcinom 38 s.c. implantiert. Das mittlere Turaorgetuicht betrug bei der unbehandelten Kontrollgruppe nach 20 Tagen: 512mg/Maus.

Coloncarcinom 26 = assay: Colon carcinoma 26 i.p. in mice, survival; conditions: for Mäuse lebend, 60 Tage / alle Mäuse lebend (day up to which): groups of 10 mice
Experimental: as §1, §2
8) Durch i.p. Inplantation (1 mm^3 Coloncarcinom 26) wurde bei Gruppen von jeweils 10 Mäusen ein Ca gesetzt Die Behandlung erfolgte durch i.p.-Verabfolgung von α-TGI. In der nachfolgenden Tabelle III sind die Ergebnisse in Abhängigkeit der jeweils am 1., 5. und 9. Tag applizierten Menge wiedergegeben.

[3] = Tolerated maximum daily dose in mice, i.p. aqueous solutions; conditions: clear toxic effects only at higher doses
Experimental: Im Tierexperiment hat sich die Verwendung von frisch hergestellten, wäßrigen Lösungen, die i.p. gegeben werden, als zweckmäßig erwiesen. Von α- beziehungsweise β-Triglycidylisocyanurat kann bei Mäusen die Maximaldosis p.die 100 mg/kg Maus betragen. Deutliche toxische Wirkungen treten erst bei höherer Dosierung auf. Als optimale Dosierung hat sich in vielen Fällen eine Gabe von 30 mg bis 60 mg/kg Maus während einer Applikationsdauer von 1 bis 9 Tagen bewährt.

[4] = 50 mg/kg p.die i.p., days 1 to 9
[5] = 50 mg/kg p.die i.p., days 1 to 9, group of 6 mice
[6] = 100 mg/kg p.die i.p., days 1 to 9

## O=c1n(CC2CO2)c(=O)n(CC2CO2)c(=O)n1CC1CO1 (single isomer, unassigned) [α-TGI, α-Triglycidylisocyanurat]
[1]; 25 mg/kg p.die, 9 doses
  T/C: 196%
[1]; 50 mg/kg p.die i.p., 9 days
  T/C: 200%
[1]; 50 mg/kg p.die, 9 days
  Heilung: 17%
[1]; 100 mg/kg p.die i.p., 9 days
  T/C, Verlängerungsrate (mittlere Lebenserwartung gegenüber der Kontrollgruppe): 285%
[1]; 100 mg/kg p.die i.p., 9 days, fraction of treated mice
  behandelte Mäuse lebten länger als 40 Tage (als geheilt anzusehen): Die Hälfte
[2]; 40 mg/kg, days 1 to 9
  Mäuse überlebten 60 Tage: alle
  T/C: 478%
Leukämie L 1210; 40 mg 9x i.p. (1.bis 9.Tag)
  Überlebende / ganze Gruppe, leukäm. M.: 8/10
  Überlebende / ganze Gruppe, Kontrollgruppe: 8/8
Leukämie L 1210; 50 mg 5x i.p. (1.bis 5.Tag)
  Überlebende / ganze Gruppe, leukäm. M.: 5/10
  Überlebende / ganze Gruppe, Kontrollgruppe: 7/8
Leukämie L 1210; [4]
  T/C: 297%
  mittlere Überlebensdauer: 23,8 Tage
Leukämie L 1210; [5]
  30 Tage erreichten: 3 Mäuse
  Heilungsrate: ~50%
Melanom B16; 25 mg p.die i.p.
  T/C: 227%
  m. s. t. (Tage): 36,0 Tage
Melanom B16; 50 mg p.die i.p.
  T/C: 234%
  m. s. t. (Tage): 37,0 Tage
Melanom B16; 12,5 mg p.die i.p.
  T/C: 188%
  m. s. t. (Tage): 29,8 Tage
Lungencarcinom (Lewis); 40 mg/kg p.die i.p.
  Hemmung an Metastasen gegenüber der Kontrollgruppe: 92%
Ependymoblastom
  T/C: 165%
Sarcom 180
  T/C: 183%
Coloncarcinom 38; 50 mg/kg p.die on days 2, 9 and 16
  mittleres Tumorgewicht: 183 mg pro Maus
Coloncarcinom 38; 50 mg/kg p.die on days 2 and 9
  mittleres Tumorgewicht: 153 mg pro Maus
Coloncarcinom 26; 25 mg i.p. on days 1, 5 and 9
  Mäuse lebend, 60 Tage: 6 von 10
  alle Mäuse lebend (day up to which): 25 Tage
Coloncarcinom 26; 50 mg i.p. on days 1, 5 and 9
  Mäuse lebend, 60 Tage: 60 Tage noch 10 Mäuse lebend
Coloncarcinom 26; 100 mg i.p. on days 1, 5 and 9
  Mäuse lebend, 60 Tage: 4 Mäuse
  alle Mäuse lebend (day up to which): 49 Tage
[3]; mouse, in vivo, ip, read-out: Maximaldosis p.die
  MTD: 100 mg/kg/day

## O=c1n(CC2CO2)c(=O)n(CC2CO2)c(=O)n1CC1CO1 (single isomer, unassigned) [β-TGI, β-Triglycidylisocyanurat]
[1]; 25 mg/kg p.die, 9 doses
  T/C: 174%
[1]; 50 mg/kg p.die i.p., 9 days
  T/C: 179%
[1]; 50 mg/kg p.die, 9 days
  Heilung: 17%
[1]; 100 mg/kg p.die i.p., 9 days
  T/C, Verlängerungsrate (mittlere Lebenserwartung gegenüber der Kontrollgruppe): 228%
[1]; 100 mg/kg p.die, 9 days
  Heilung: 17%
Leukämie L 1210; [4]
  T/C: 203%
  mittlere Überlebensdauer: 16,3 Tage
Leukämie L 1210; [6]
  T/C: 315%
  mittlere Überlebensdauer: 25,2 Tage
Lungencarcinom (Lewis); 90 mg/kg p.die i.p.
  Hemmung an Metastasen gegenüber der Kontrollgruppe: 87%
[3]
  Maximaldosis p.die: 100 mg/kg Maus

## O=P1(N(CCCl)CCCl)NCCCO1 (stereo not shown) [Cyclophosphamid, reference compound]
[2]; 180 mg/kg
  T/C: 150%
  Überlebenszeit der behandelten Mäuse: < 30 Tage

## O=c1[nH]cc(F)c(=O)[nH]1 [Fluoruracil, reference compound]
Coloncarcinom 26; positive comparison, dose not given, 10 mice
  mittlere überlebensdauer: 55 Tage
Coloncarcinom 26; positive comparison, dose not given, of 10 mice
  Mäuse lebend am 60. Tag: 2 Mäuse

## CC1(Cn2c(=O)n(CC3(C)CO3)c(=O)n(CC3(C)CO3)c2=O)CO1 (stereo not shown) [Tri-(2-methylglycidyl)-isocyanurat]
[1]; 50 mg/kg p.die i.p., 9 days
  T/C: 150%
[1]; 100 mg/kg p.die i.p., 9 days
  T/C, Verlängerungsrate (mittlere Lebenserwartung gegenüber der Kontrollgruppe): 170%
